Paper PMC6691788, “Design and synthesis of phthalazine-based compounds as potent anticancer agents with potential antiangiogenic activity via VEGFR-2 inhibition” (Journal of Enzyme Inhibition and Medicinal Chemistry, 2019)

Columns and labels:
CCRF-CEM = experiment: NCI 60 cell panel SRB screen; assay type: cell-based, human; conditions: Homo sapiens, single dose 10 μM, read-out: percent cell growth promotion
HL-60(TB) = experiment: NCI 60 cell panel SRB screen; assay type: cell-based; conditions: Homo sapiens, single dose 10 μM, read-out: percent cell growth promotion
RPMI-8226 = experiment: NCI 60 cell panel SRB screen; assay type: cell-based; conditions: Homo sapiens; RPMI-8226, single dose 10 μM; read-out: percent cell growth promotion
SR = experiment: NCI 60 cell panel SRB screen; assay type: cell-based; conditions: Homo sapiens, single dose 10 μM, read-out: percent cell growth promotion
NCI-H226 = experiment: NCI 60 cell panel SRB screen; assay type: cell-based; conditions: Homo sapiens; NCI-H226, single dose 10 μM; read-out: percent cell growth promotion
NCI-H322M = experiment: NCI 60 cell panel SRB screen; assay type: cell-based; conditions: Homo sapiens, single dose 10 μM, read-out: percent cell growth promotion
NCI-H460 = experiment: NCI 60 cell panel SRB screen; assay type: cell-based; conditions: Homo sapiens; NCI-H460, single dose 10 μM; read-out: percent cell growth promotion
HCC-2998 = experiment: NCI 60 cell panel SRB screen; assay type: cell-based; conditions: Homo sapiens; HCC-2998, single dose 10 μM; read-out: percent cell growth promotion
HT29 = experiment: NCI 60 cell panel SRB screen; assay type: cell-based; conditions: Homo sapiens, HT-29; HT29, single dose 10 μM; read-out: percent cell growth promotion
KM12 = experiment: NCI 60 cell panel SRB screen; assay type: cell-based; conditions: Homo sapiens; KM12, single dose 10 μM; read-out: percent cell growth promotion
SNB-19 = experiment: NCI 60 cell panel SRB screen; assay type: cell-based; conditions: Homo sapiens; SNB-19, single dose 10 μM; read-out: percent cell growth promotion
LOX IMVI = experiment: NCI 60 cell panel SRB screen; assay type: cell-based; conditions: Homo sapiens, read-out: percent cell growth promotion
SK-MEL-5 = experiment: NCI 60 cell panel SRB screen; assay type: cell-based; conditions: Homo sapiens, SK-MEL-5, read-out: percent cell growth promotion
OVCAR-3 = experiment: NCI 60 cell panel SRB screen; assay type: cell-based; conditions: Homo sapiens; OVCAR-3, single dose 10 μM; read-out: percent cell growth promotion
OVCAR-8 = experiment: NCI 60 cell panel SRB screen; assay type: cell-based; conditions: Homo sapiens; OVCAR-8, single dose 10 μM; read-out: percent cell growth promotion
RXF 393 = experiment: NCI 60 cell panel SRB screen; assay type: cell-based; conditions: Homo sapiens; RXF 393, single dose 10 μM; read-out: percent cell growth promotion
TK-10 = experiment: NCI 60 cell panel SRB screen; assay type: cell-based, human; conditions: Homo sapiens; TK-10, single dose 10 μM; read-out: percent cell growth promotion
PC-3 = experiment: NCI 60 cell panel SRB screen; assay type: cell-based; conditions: Homo sapiens; PC-3, single dose 10 μM; read-out: percent cell growth promotion
T-47D = experiment: NCI 60 cell panel SRB screen; assay type: cell-based; conditions: Homo sapiens, T47D, read-out: percent cell growth promotion
VEGFR-2 tyrosine kinase = target: T1, VEGFR-2 tyrosine kinase (Homo sapiens, UniProt P35968); experiment: In vitro VEGFR-2 tyrosine kinase assay (BPS Bioscience); assay type: biochemical; conditions: read-out: VEGFR-2 % inhibition; 10 μM concentration
T1 construct: purchased BPS Bioscience 40301
T1 sequence (P35968 20-1356): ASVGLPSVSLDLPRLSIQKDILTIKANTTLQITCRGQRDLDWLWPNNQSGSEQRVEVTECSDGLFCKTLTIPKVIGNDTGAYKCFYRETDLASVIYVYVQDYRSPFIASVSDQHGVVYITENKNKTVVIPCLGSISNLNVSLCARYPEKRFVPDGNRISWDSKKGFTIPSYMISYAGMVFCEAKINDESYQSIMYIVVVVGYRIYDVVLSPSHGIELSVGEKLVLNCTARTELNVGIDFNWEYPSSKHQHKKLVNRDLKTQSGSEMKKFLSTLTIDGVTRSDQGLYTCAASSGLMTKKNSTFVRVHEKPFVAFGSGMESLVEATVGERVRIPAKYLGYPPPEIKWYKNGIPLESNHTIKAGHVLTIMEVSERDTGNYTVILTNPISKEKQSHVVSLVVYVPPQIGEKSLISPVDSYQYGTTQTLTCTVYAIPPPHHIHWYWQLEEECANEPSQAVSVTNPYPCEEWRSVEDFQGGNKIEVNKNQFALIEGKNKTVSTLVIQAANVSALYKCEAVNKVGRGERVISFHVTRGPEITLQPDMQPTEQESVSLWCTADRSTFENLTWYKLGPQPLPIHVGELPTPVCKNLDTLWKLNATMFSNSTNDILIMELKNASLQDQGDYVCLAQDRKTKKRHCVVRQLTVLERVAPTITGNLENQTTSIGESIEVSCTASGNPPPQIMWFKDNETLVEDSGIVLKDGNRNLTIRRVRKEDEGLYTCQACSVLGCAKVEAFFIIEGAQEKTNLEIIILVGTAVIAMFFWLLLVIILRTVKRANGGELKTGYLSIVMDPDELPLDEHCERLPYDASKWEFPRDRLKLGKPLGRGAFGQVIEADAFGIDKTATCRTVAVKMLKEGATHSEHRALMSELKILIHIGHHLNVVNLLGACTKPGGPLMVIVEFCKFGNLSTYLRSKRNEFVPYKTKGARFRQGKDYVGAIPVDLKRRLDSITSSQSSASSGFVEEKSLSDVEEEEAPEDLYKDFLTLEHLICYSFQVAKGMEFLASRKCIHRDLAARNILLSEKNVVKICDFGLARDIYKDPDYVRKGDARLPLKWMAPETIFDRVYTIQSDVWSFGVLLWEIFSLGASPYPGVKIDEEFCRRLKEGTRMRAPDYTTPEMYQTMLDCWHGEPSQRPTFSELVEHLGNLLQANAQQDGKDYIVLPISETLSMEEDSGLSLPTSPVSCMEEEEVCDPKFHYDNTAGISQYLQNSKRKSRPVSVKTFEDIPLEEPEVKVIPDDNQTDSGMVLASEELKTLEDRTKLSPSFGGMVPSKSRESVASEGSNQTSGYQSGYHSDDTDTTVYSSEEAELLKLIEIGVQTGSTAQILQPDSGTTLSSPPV
Method in brief: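 For IC50, ADP formation after a 30-min 30 °C reaction was detected by ADP-Glo luminescence in duplicate, blank-subtracted and fitted as log inhibitor versus normalised response. The 10 µM single-dose test instead measured remaining ATP (Kinase-Glo Plus) after 40 min at 30 °C with poly(Glu,Tyr) substrate, 10 μM ATP, pH 7.4, 1% DMSO.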

SMILES	activity at 10 µM (CCRF-CEM) [%]	activity at 10 µM (HL-60(TB)) [%]	activity at 10 µM (RPMI-8226) [%]	activity at 10 µM (SR) [%]	activity at 10 µM (NCI-H226) [%]	activity at 10 µM (NCI-H322M) [%]	activity at 10 µM (NCI-H460) [%]	activity at 10 µM (HCC-2998) [%]	activity at 10 µM (HT29) [%]	activity at 10 µM (KM12) [%]	activity at 10 µM (SNB-19) [%]	activity at 10 µM (LOX IMVI) [%]	activity at 10 µM (SK-MEL-5) [%]	activity at 10 µM (OVCAR-3) [%]	activity at 10 µM (OVCAR-8) [%]	activity at 10 µM (RXF 393) [%]	activity at 10 µM (TK-10) [%]	activity at 10 µM (PC-3) [%]	activity at 10 µM (T-47D) [%]	inhibition at 10 µM (VEGFR-2 tyrosine kinase) [%]
Cc1nnc(Oc2ccc(NC(=O)Nc3ccc(Cl)cc3)cc2)c2ccccc12 [Compound 7e, 1–(4-Chlorophenyl)-3–(4-(4-methylphthalazin-1-yloxy)phenyl)urea]	40.2	80.1	55.6	38.5	79.1	82.4	78.2	110	77	57.7	84.1	78.1	70.2	69.8	76	82	84.8	39	57.9	14
CCOC(=O)N1CCN(c2nncc3ccccc23)CC1 [Compound 8a, Ethyl 4-(phthalazin-1-yl)piperazine-1-carboxylate]	96.9	108	101	102	100	113	105	117	106	104	103	98.7	103	105	97.7	102	110	92.6	100	13
